Measurements reported in ChEMBL document CHEMBL3885881, “DrugMatrix”.

Species on record: Rattus norvegicus
Assay: DrugMatrix - Regimen: Daily Repeat
Type: toxicity, organism-based, Sprague-Dawley
Set-up: regimen Daily Repeat, gender Male, age 6-8 weeks
Conditions: in vivo, ip, route intraperitoneal, vehicle 100 % SALINE; for URIC ACID / ALANINE AMINOTRANSFERASE / ALBUMIN / ALKALINE PHOSPHATASE / ASPARTATE AMINOTRANSFERASE / BLOOD UREA NITROGEN / CHLORIDE / CHOLESTEROL / CREATINE PHOSPHOKINASE / CREATININE / GLUCOSE / LACTATE DEHYDROGENASE / LIPASE / PHOSPHORUS / POTASSIUM / SODIUM / TOTAL BILIRUBIN / TOTAL PROTEIN: tissue Plasma
[1] = 5 mg/kg, 120 h, tissue Blood, dose level High, time 5 day
[2] = 5 mg/kg, 120 h, dose level High, time 5 day
[3] = 5 mg/kg, […], tissue Blood, dose level High, time 14 day
[4] = 5 mg/kg, […], tissue Blood, dose level High, time 28 day
[5] = 5 mg/kg, […], dose level High, time 14 day
[6] = 5 mg/kg, […], dose level High, time 28 day

## CARBOPLATIN
0 mg/kg, […], dose level Control, time 28 day
  URIC ACID: 1.26 mg/dL
[1]
  ABSOLUTE BASOPHIL: 26 cells/µL
  ABSOLUTE EOSINOPHIL: 44 cells/µL
  ABSOLUTE LYMPHOCYTE: 5500 cells/µL
  ABSOLUTE MONOCYTE: 120 cells/µL
  ABSOLUTE SEGMENTED NEUTROPHIL: 520 cells/µL
  BASOPHIL: 0.4%
  EOSINOPHIL: 0.72%
  ERYTHROCYTE COUNT: 7.51 x10E6/uL
  HEMATOCRIT: 46.82%
  LEUKOCYTE COUNT: 6.24 x10E3/uL
  LYMPHOCYTE: 88.18%
  MEAN CORPUSCULAR HEMOGLOBIN: 20.08 pg
  MEAN CORPUSCULAR HEMOGLOBIN CONCENTRATION: 32.18 G/DL
  MONOCYTE: 2.02%
  NEUTROPHIL: 8.22%
  PLATELET COUNT: 1572.2 x10E3/uL
[2]
  ALANINE AMINOTRANSFERASE: 21.4 u/L
  ALBUMIN: 3.62 G/DL
  ALKALINE PHOSPHATASE: 214.8 u/L
  ASPARTATE AMINOTRANSFERASE: 70.6 u/L
  BLOOD UREA NITROGEN: 14.6 mg/dL
  CHLORIDE: 107.4 MEQ/L
  CHOLESTEROL: 59.4 mg/dL
  CREATINE PHOSPHOKINASE: 192.6 u/L
  CREATININE: 0.54 mg/dL
  GLUCOSE: 139.6 mg/dL
  LACTATE DEHYDROGENASE: 65 u/L
  LIPASE: 27.2 u/L
  PHOSPHORUS: 11.28 mg/dL
  POTASSIUM: 5.36 MEQ/L
  SODIUM: 146.8 MEQ/L
  TOTAL BILIRUBIN: 0.18 mg/dL
  TOTAL PROTEIN: 6.16 G/DL
  URIC ACID: 1.16 mg/dL
[3]
  ABSOLUTE BASOPHIL: 130 cells/µL
  ABSOLUTE EOSINOPHIL: 88 cells/µL
  ABSOLUTE LYMPHOCYTE: 8780 cells/µL
  ABSOLUTE MONOCYTE: 260 cells/µL
  ABSOLUTE SEGMENTED NEUTROPHIL: 1370 cells/µL
  BASOPHIL: 1.28%
  EOSINOPHIL: 0.82%
  ERYTHROCYTE COUNT: 7.59 x10E6/uL
  HEMATOCRIT: 44.92%
  LEUKOCYTE COUNT: 10.68 x10E3/uL
  LYMPHOCYTE: 81.92%
  MEAN CORPUSCULAR HEMOGLOBIN: 19.52 pg
  MEAN CORPUSCULAR HEMOGLOBIN CONCENTRATION: 32.96 G/DL
  MONOCYTE: 2.38%
  NEUTROPHIL: 13.02%
  PLATELET COUNT: 1274 x10E3/uL
[4]
  ABSOLUTE BASOPHIL: 170 cells/µL
  ABSOLUTE EOSINOPHIL: 89 cells/µL
  ABSOLUTE LYMPHOCYTE: 9490 cells/µL
  ABSOLUTE MONOCYTE: 290 cells/µL
  ABSOLUTE SEGMENTED NEUTROPHIL: 1640 cells/µL
  BASOPHIL: 1.3%
  EOSINOPHIL: 0.78%
  ERYTHROCYTE COUNT: 8.56 x10E6/uL
  HEMATOCRIT: 50.05%
  LEUKOCYTE COUNT: 11.75 x10E3/uL
  LYMPHOCYTE: 81.13%
  MEAN CORPUSCULAR HEMOGLOBIN: 19.05 pg
  MEAN CORPUSCULAR HEMOGLOBIN CONCENTRATION: 32.58 G/DL
  MEAN CORPUSCULAR VOLUME: 58.46 fL
  MONOCYTE: 2.43%
  NEUTROPHIL: 13.81%
  PLATELET COUNT: 1331.9 x10E3/uL
[5]
  ALANINE AMINOTRANSFERASE: 30.2 u/L
  ALBUMIN: 3.48 G/DL
  ALKALINE PHOSPHATASE: 147.2 u/L
  ASPARTATE AMINOTRANSFERASE: 92.8 u/L
  BLOOD UREA NITROGEN: 12.2 mg/dL
  CHOLESTEROL: 54 mg/dL
  CREATINE PHOSPHOKINASE: 251.2 u/L
  CREATININE: 0.46 mg/dL
  GLUCOSE: 105.2 mg/dL
  LACTATE DEHYDROGENASE: 123.4 u/L
  LIPASE: 31.2 u/L
  PHOSPHORUS: 8.36 mg/dL
  POTASSIUM: 5.68 MEQ/L
  SODIUM: 149.4 MEQ/L
  TOTAL BILIRUBIN: 0.22 mg/dL
  TOTAL PROTEIN: 6.24 G/DL
  URIC ACID: 0.6 mg/dL
[6]
  ALANINE AMINOTRANSFERASE: 36.4 u/L
  ALBUMIN: 3.74 G/DL
  ALKALINE PHOSPHATASE: 135 u/L
  ASPARTATE AMINOTRANSFERASE: 95.6 u/L
  BLOOD UREA NITROGEN: 13.2 mg/dL
  CHLORIDE: 106.6 MEQ/L
  CHOLESTEROL: 55.8 mg/dL
  CREATINE PHOSPHOKINASE: 186.2 u/L
  CREATININE: 0.51 mg/dL
  GLUCOSE: 115.1 mg/dL
  LACTATE DEHYDROGENASE: 98.7 u/L
  LIPASE: 8.62 u/L
  PHOSPHORUS: 9.03 mg/dL
  POTASSIUM: 6.36 MEQ/L
  SODIUM: 150.9 MEQ/L
  TOTAL BILIRUBIN: 0.22 mg/dL
